Where a name gives a salt, the structure may show the parent alone.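 All cell lines were grown in 96-well plates and treated with compound for 48 hours. GI50 = concentration required for 50% inhibition of growth.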 Calls of active or inactive are those of the source. Rule as the data show it: active = GI50 up to about 1.1 µM and inactive = higher.
Legend:
Assay in all cases: inhibition of tumour cell growth, NCI panel, 48 h
U-251 = system: U-251
RXF 393 = system: RXF 393
SK-MEL-2 = system: SK-MEL-2
SN12C = system: SN12C
NCI-H460 = system: NCI-H460
HT-29 = system: HT-29
M14 = system: M14
EKVX = system: EKVX
SF-295 = system: SF-295
TK-10 = system: TK-10
HOP-62 = system: HOP-62
OVCAR-8 = system: OVCAR-8
K562 = system: K562
SF-268 = system: SF-268
HL-60 = system: HL-60
HCC 2998 = system: HCC 2998
RPMI-8226 = system: RPMI-8226
MOLT-4 = system: MOLT-4

Measured: GI50

O=c1[nH]c(C2CCCCC2)nc2c(Cl)cccc12
inactive: U-251 > 100 µM | RXF 393 > 100 µM | SK-MEL-2 > 100 µM | SN12C > 100 µM | NCI-H460 > 100 µM | HT-29 > 100 µM | M14 > 100 µM | EKVX 26.1 µM | SF-295 > 100 µM | TK-10 > 100 µM | HOP-62 > 100 µM | OVCAR-8 > 100 µM | K562 > 100 µM | SF-268 > 100 µM | HL-60 > 100 µM | HCC 2998 > 100 µM

O=c1[nH]c(=O)n(C2CC(O)C(CO)O2)cc1C(F)(C(F)(F)F)C(F)(F)F (stereo unspecified)
inactive: U-251 > 100 µM | RXF 393 > 100 µM | SK-MEL-2 > 100 µM | RPMI-8226 45.6 µM | MOLT-4 > 100 µM | SN12C > 100 µM | NCI-H460 > 100 µM | HT-29 > 100 µM | M14 > 100 µM | EKVX > 100 µM | SF-295 > 100 µM | TK-10 > 100 µM | HOP-62 > 100 µM | OVCAR-8 > 100 µM | K562 > 100 µM | SF-268 > 100 µM | HL-60 > 100 µM

CCCCN(CC)C(=O)C(=O)Cc1nc2ccc(C(=O)c3ccccc3)cc2nc1O
inactive: U-251 73.1 µM | RXF 393 25.5 µM | RPMI-8226 27 µM | MOLT-4 21.1 µM | SN12C > 86.1 µM | NCI-H460 13.6 µM | HT-29 57.5 µM | M14 > 100 µM | EKVX > 63.2 µM | SF-295 59 µM | TK-10 > 84.5 µM | HOP-62 > 100 µM | OVCAR-8 > 100 µM | K562 19.1 µM | SF-268 > 100 µM | HL-60 20.8 µM

COC(=O)OCC1OC(N2C(=O)NC(=O)C(I)C2N=[N+]=[N-])CC1OC(=O)OC (stereo unspecified)
inactive: U-251 > 100 µM | RXF 393 > 100 µM | RPMI-8226 > 100 µM | MOLT-4 > 100 µM | SN12C > 100 µM | NCI-H460 > 100 µM | HT-29 > 100 µM | M14 > 100 µM | SF-295 > 100 µM | TK-10 > 100 µM | HOP-62 > 100 µM | OVCAR-8 > 100 µM | K562 > 100 µM | SF-268 > 100 µM | HL-60 > 100 µM | HCC 2998 > 100 µM

OCC(CO)C1c2cccc3ccc4cccc1c4c23
inactive: U-251 > 100 µM | RXF 393 > 100 µM | SK-MEL-2 > 100 µM | RPMI-8226 > 100 µM | MOLT-4 > 100 µM | SN12C > 100 µM | NCI-H460 > 100 µM | HT-29 > 100 µM | M14 > 100 µM | EKVX 87.9 µM | SF-295 > 100 µM | TK-10 > 100 µM | HOP-62 > 100 µM | OVCAR-8 > 100 µM | K562 > 100 µM | SF-268 > 100 µM | HL-60 > 100 µM

Cn1c(=O)c2[nH]cnc2n(CC(=O)O)c1=O
inactive: U-251 > 100 µM | SK-MEL-2 > 100 µM | RPMI-8226 > 100 µM | MOLT-4 > 100 µM | SN12C > 100 µM | NCI-H460 > 100 µM | HT-29 > 100 µM | M14 > 100 µM | EKVX > 100 µM | TK-10 > 100 µM | HOP-62 > 100 µM | OVCAR-8 > 100 µM | K562 > 100 µM | SF-268 > 100 µM

Nc1nc(NCCO)c(N=O)c(=O)[nH]1
inactive: U-251 > 100 µM | RXF 393 > 100 µM | SK-MEL-2 > 100 µM | RPMI-8226 > 100 µM | SN12C > 100 µM | NCI-H460 > 100 µM | HT-29 > 100 µM | M14 > 100 µM | EKVX > 100 µM | SF-295 > 100 µM | TK-10 > 100 µM | HOP-62 > 100 µM | OVCAR-8 > 100 µM | K562 > 100 µM | SF-268 > 100 µM | HL-60 > 100 µM

COC1CC(OC)C(O)C(CO)O1 (stereo unspecified)
inactive: U-251 > 100 µM | RXF 393 > 100 µM | SK-MEL-2 > 100 µM | MOLT-4 > 100 µM | SN12C > 100 µM | NCI-H460 > 100 µM | HT-29 > 100 µM | M14 > 100 µM | EKVX > 100 µM | SF-295 > 100 µM | TK-10 > 100 µM | HOP-62 > 100 µM | OVCAR-8 > 100 µM | K562 > 100 µM | HL-60 > 100 µM | HCC 2998 > 100 µM

O=C(Cc1c(C(=O)Nc2ccccc2)sc(C(=O)Nc2ccccc2)c1CC(=O)Nc1ccccc1)Nc1ccccc1
active: SF-268 0.446 µM
inactive: U-251 > 100 µM | RXF 393 > 100 µM | RPMI-8226 > 100 µM | SN12C > 100 µM | NCI-H460 > 100 µM | HT-29 > 100 µM | M14 > 100 µM | EKVX > 100 µM | SF-295 > 100 µM | TK-10 > 100 µM | HOP-62 > 100 µM | OVCAR-8 > 100 µM | K562 > 100 µM | HL-60 > 100 µM | HCC 2998 > 100 µM

CC(C)(C)c1cc(C(O)(C(F)(F)F)C(F)(F)F)c2c(c1)C(C(F)(F)F)(C(F)(F)F)OC(C(C)(C)C)N2 (stereo unspecified)
inactive: U-251 3.61 µM | SK-MEL-2 2.55 µM | RPMI-8226 1.95 µM | MOLT-4 1.63 µM | SN12C 3.3 µM | NCI-H460 3.27 µM | HT-29 2.69 µM | M14 5.13 µM | EKVX 4.22 µM | SF-295 2.63 µM | TK-10 3.27 µM | OVCAR-8 3.05 µM | K562 2.39 µM | HCC 2998 3.88 µM
active: RXF 393 0.382 µM

CCOC(=O)c1sc2c(C(=O)OCC)n3cc(C)cc(C)c3c2c1O
inactive: U-251 > 100 µM | RXF 393 > 100 µM | SK-MEL-2 > 100 µM | MOLT-4 > 100 µM | SN12C > 100 µM | NCI-H460 > 100 µM | HT-29 > 100 µM | M14 > 100 µM | EKVX 29.5 µM | SF-295 > 100 µM | TK-10 > 100 µM | OVCAR-8 > 100 µM | K562 > 100 µM | SF-268 > 100 µM | HCC 2998 > 100 µM

NC(=O)NNC(=O)NC12CC3CC(CC(C3)C1)C2
inactive: U-251 > 100 µM | RXF 393 > 100 µM | SK-MEL-2 > 100 µM | MOLT-4 > 100 µM | SN12C > 100 µM | NCI-H460 > 100 µM | HT-29 > 100 µM | M14 > 100 µM | EKVX > 100 µM | SF-295 > 100 µM | TK-10 > 100 µM | HOP-62 > 100 µM | OVCAR-8 > 100 µM | K562 > 100 µM | SF-268 > 100 µM | HL-60 > 100 µM | HCC 2998 > 100 µM

CCOC(=O)C12CCCC1(O)N(NC(=O)c1ccccc1)C(C)=C2C(=O)OC (stereo unspecified)
inactive: U-251 > 100 µM | SK-MEL-2 > 100 µM | RPMI-8226 > 100 µM | MOLT-4 > 100 µM | SN12C > 100 µM | NCI-H460 > 100 µM | HT-29 > 100 µM | M14 > 100 µM | EKVX > 100 µM | SF-295 > 100 µM | TK-10 > 100 µM | HOP-62 > 100 µM | OVCAR-8 > 100 µM | K562 > 100 µM | SF-268 > 100 µM | HL-60 > 100 µM | HCC 2998 > 100 µM

CC(C)(C)/N=N/C(C)(C)N=C=O
inactive: U-251 > 100 µM | RXF 393 > 100 µM | SK-MEL-2 > 100 µM | RPMI-8226 > 100 µM | MOLT-4 > 100 µM | SN12C > 100 µM | NCI-H460 > 100 µM | HT-29 > 100 µM | M14 > 100 µM | EKVX 99.8 µM | SF-295 60.1 µM | TK-10 > 100 µM | HOP-62 > 100 µM | OVCAR-8 > 100 µM | K562 > 100 µM | SF-268 > 100 µM | HL-60 > 100 µM

COc1ccc2c(c1)C(O)(C(F)(F)F)c1cc(C(=O)C(F)(F)F)c3ccccc3c1N2 (stereo unspecified)
inactive: RXF 393 11.5 µM | SK-MEL-2 12.2 µM | MOLT-4 8.99 µM | NCI-H460 8.89 µM | HT-29 7.73 µM | M14 5.33 µM | EKVX 18.3 µM | SF-295 13.2 µM | TK-10 13.5 µM | K562 3.7 µM | SF-268 10.2 µM | HL-60 14.7 µM | HCC 2998 11.9 µM

Cc1cc(C)nc(NS(=O)(=O)c2ccc(NC(=O)c3ccc(Cl)c4c(Nc5ccc(S(=O)(=O)Nc6nc(C)cc(C)n6)cc5)c5ccccc5nc34)cc2)n1
inactive: U-251 3.24 µM | RXF 393 2.16 µM | SK-MEL-2 13.7 µM | RPMI-8226 3.72 µM | MOLT-4 4.5 µM | SN12C 3.14 µM | NCI-H460 17 µM | HT-29 31.7 µM | M14 2.64 µM | EKVX 48.1 µM | SF-295 25.4 µM | TK-10 33.4 µM | HOP-62 6.44 µM | OVCAR-8 17.4 µM | K562 9.95 µM | SF-268 4.41 µM | HL-60 3.15 µM

COC(=O)C1=CO[C@@H](C)[C@@H]2Cn3ccc4c5ccccc5nc-4c3C[C@H]12 [ALSTONINE HYDROCHLORIDE]
inactive: U-251 > 100 µM | RXF 393 > 100 µM | SK-MEL-2 > 100 µM | RPMI-8226 84.3 µM | MOLT-4 90.6 µM | SN12C > 100 µM | NCI-H460 > 100 µM | HT-29 > 100 µM | M14 > 100 µM | EKVX > 100 µM | SF-295 > 100 µM | TK-10 > 100 µM | HOP-62 > 100 µM | OVCAR-8 > 100 µM | K562 55.2 µM | SF-268 > 100 µM

Reference: ChEMBL document CHEMBL1201862, “PubChem BioAssay data set” (2004)
